Reference: article PMC8287944, “5-Fluorouracil blocks quorum-sensing of biofilm-embedded methicillin-resistant Staphylococcus aureus in mice” (Nucleic Acids Research, 2021)

What was measured:
V. harveyi (BB170) [1] = test: V. harveyi BB170 growth (OD600 after 24 h); format: cell-based, Vibrio harveyi; settings: V. harveyi BB170, OD600 after 24 h
Experimental: (§1) The test strain V. harveyi BB170 was grown overnight in Luria Marine (LM)-medium ([25]). The culture was 1:500 diluted in AB-medium (0.3 M NaCl, 10 mM potassium phosphate, 1 mM L-arginine, […], 1% glycerol) the next day, and then challenged with various chemical compounds. After 5 h of shaking at 200 rpm at 30°C, the bioluminescence of BB170 was quantified on a GENios Pro plate reader (Tecan, Männedorf, Switzerland).
(§2) Figure 3. Bioactivity of hit candidates against Vibrio harveyi. Effect on bacterial growth. V. harveyi (BB170) was grown in the presence of individual compounds (A–H) for 5 h and the bioluminescence (green circles) was quantified. After a total of 24 h, bacterial growth (+) was evaluated by measuring the optical density (OD600). The gray translucent background in (C) represents the narrow range within which the compound reduces bioluminescence without affecting growth.

V. harveyi (BB170) [2] = test: V. harveyi BB170 bioluminescence (5 h); format: cell-based, Vibrio harveyi; settings: V. harveyi BB170, 5 h
Experimental: as §1, §2

SE 1457 wild type = test: AI-2 activity of SE 1457 wild type; format: cell-based, Staphylococcus epidermidis; settings: 3 h, increasing 5-FU concentrations
Experimental: To confirm that the phenotype could be restored, 1 μM synthetic (S)-4,5-dihydroxy-2,3-pentanedione (DPD) (Biosynth Carbosynth, Staad, Switzerland) was used. After 3 h under static conditions at 37°C, the supernatant was analysed for AI-2 activity with V. harveyi (MM32).
Supplementary Figure 4 | Bioactivity of 5-FU against Staphylococcus epidermidis (SE). a) Quorum-sensing-associated AI-2 activity of SE 1457 grown for 3 h in the presence of different 5-FU concentrations (note log scale). b) Reversing effect of 1 µM DPD on the AI-2-reducing action of 5-FU (dashed line indicates AI-2 baseline of SE 1457 without 5-FU). Values represent 3 biological replicates expressed as mean ± SD (*, p < 0.05; **, p < 0.01).

MRSA ATCC 43300 [3] = test: MRSA 43300 growth; format: cell-based, Staphylococcus aureus; settings: 0.1 μM 5-FU
Experimental: Figure 4. Bioactivity of 5-FU against MRSA ATCC 43300. (A) Quorum sensing-associated AI-2 activity of MRSA 43300 grown for 3 h with different 5-FU concentrations. (B) Effect of different 5-FU concentrations on MRSA 43300 growth. (C) Interference with biofilm formation. (D) Effect on adherent MRSA 43300. Data points represent three biological replicates expressed as mean ± SD (**P < 0.01; ***P < 0.001; ****P < 0.0001).

MRSA ATCC 43300 [4] = test: Murine tissue cage (foreign-body) infection model, prophylaxis; format: in vivo, Staphylococcus aureus; settings: C57BL/6 mice, prophylactic treatment
Experimental: To evaluate the prophylactic efficacy of 5-FU against MRSA infection, we used our murine model of foreign-body infection, which closely mimics human implant-associated infections. This model of foreign-body infection ([26],[27]) was established with the approval of the Kantonale Veterinaeramt Basel-Stadt, Switzerland (permit no. 1710). Experiments were conducted according to the regulations of Swiss veterinary law and performed in the animal house of the Department of Biomedicine, University Hospital Basel, Switzerland. Healthy wild-type female C57BL/6 mice at 13 weeks of age (JanvierLabs, France) kept under specific pathogen-free conditions (biosafety level 2) were anesthetized, followed by the subcutaneous implantation of sterile cylindrical Teflon tissue cages (8.5 × 1 × 30 mm; volume: 1.9 ml) with 130 regularly spaced holes (Angst + Pfister AG, Zurich, Switzerland). They were housed in a 12 hr light/dark cycle (light from 7 am to 7 pm) in a temperature-controlled room (24°C) with free access to regular mice chow and water. Mice were randomly assigned to experimental groups, which were not involved in previous procedures. The mice were randomized into groups, which were treated as follows: saline (untreated growth control; n = 7), saline with 5.2844 mg/kg DPD (n = 4), 50 mg/kg daptomycin (DAP) (Novartis, Basel, Switzerland) (n = 11), 10 mg/kg 5-FU with and without 50 mg/kg DAP (each n = 8), 40 mg/kg 5-FU with or without 50 mg/kg DAP (n = 16 and n = 13, respectively), 40 mg/kg 5-FU with 1 μM DPD (n = 6), or 40 mg/kg 5-FU with 50 mg/kg DAP and 5.2844 mg/kg DPD (n = 8). DAP was given intraperitoneally immediately before implantation, and 5-FU and DPD was given immediately after implantation directly into the lumen of the cage. Afterwards, the cages were infected with 965 CFU of MRSA 43300. At 2 days post-infection, tissue cage fluid was collected, and the planktonic bacterial load was evaluated by plating on blood agar plates. In additional, mice were sacrificed and the tissue cages were explanted under aseptic conditions. The explanted tissue cages were washed twice with phosphate-buffered saline followed by 30 s vortexing, sonication for 3 min at 130 W and another 30 s vortexing to release adherent bacteria from the biofilm. Quantification of adherent bacteria was performed by plating appropriated dilutions on blood agar plates. To determine the prevention rate, the presence of any re-growth of MRSA was examined by further incubation of the cage in tryptic soy broth (TSB) for 48 h at 37°C. MRSA re-growth represents therapy failure, and the prevention rate was defined as the percentage of cages without growth in each treatment group.
Figure 6. Prophylactic effect of 5-FU against MRSA ATCC 43300 in a murine tissue cage infection model. Read-outs were obtained two days after infection with 965 CFU/cage and treatment with saline, saline with 1 μM AI-2, 50 mg/kg daptomycin (DAP), 10 mg/kg 5-FU with or without 50 mg/kg DAP, 40 mg/kg 5-FU with or without 50 mg/kg DAP or 40 mg/kg 5-FU with 50 mg/kg DAP and 5.2844 mg/kg DPD, as indicated below the panels. (A) Effect on planktonic MRSA 43300 two days post-infection. (B) Effect on adherent MRSA after explantation and sonication. (C) Prevention rate. Values in (A) and (B) are median ± IQR and those in (C) are % ([…]; **P < 0.001; ****P < 0.0001; ns, not significant). TEXT PRINTED IN THE PICTURE: (C) DAP: prevention rate (%): 18 | (C) DAP + 5-FU (10): prevention rate (%): 75 | (C) DAP + 5-FU (40): prevention rate (%): 94 | (C) DAP + 5-FU (40) + DPD: prevention rate (%): 12.5 DOUBTS OF THE COPYIST ABOUT THIS PICTURE: Panel C, DAP, prevention rate: 18 or 16 (small print) / Panel C, DAP + 5-FU (10), prevention rate: 75 or 76 (small print) / Panel C: which treatment belongs to each bar was read from the small +/- grid under the plot, so the column alignment is not fully certain

Structure (SMILES): O=c1[nH]cc(F)c(=O)[nH]1 [5-Fluorouracil]
- Effect on V. harveyi growth (V. harveyi (BB170) [1]): without decreasing the growth
- Effect on V. harveyi bioluminescence (V. harveyi (BB170) [2]): reduced the bioluminescence
- AI-2 activity of SE 1457 (SE 1457 wild type): reduced AI-2 activity dose-dependently
- Bacterial growth of MRSA (MRSA ATCC 43300 [3]): significantly decreased bacterial growth
- Effect on biofilm / adherent MRSA (MRSA ATCC 43300 [4]; explanted cages 2 days post-infection): neither 5-FU nor DAP alone was sufficient to contain the infection
- Effect on planktonic MRSA infection (MRSA ATCC 43300 [4]; tissue cage fluid 2 days post-infection): failed to clear planktonic MRSA infections
